Source: PubChem BioAssay AID588764 (Broad Institute, 2011)
Results filed as inconclusive are left out. Active and inactive are the calls of the source. No rule for the calls is given here.

The compounds below were run against Histone acetyltransferase RTT109 (Candida albicans (strain SC5314 / ATCC MYA-2876)) (UniProt Q5AAJ8) (assay: Rtt109/Vps75 acetyltransferase inhibitor potency, dose response, biochemical, cherry-picked hits, plate reader (AID 588764;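 as to activity change, negative = inhibition: 0% = neutral control wells and -100% = no enzyme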)). Settings: Rtt109/Vps75 HAT activity.
Histone acetyltransferase RTT109 (Candida albicans (strain SC5314 / ATCC MYA-2876)), sequence (Q5AAJ8 whole entry, looked up): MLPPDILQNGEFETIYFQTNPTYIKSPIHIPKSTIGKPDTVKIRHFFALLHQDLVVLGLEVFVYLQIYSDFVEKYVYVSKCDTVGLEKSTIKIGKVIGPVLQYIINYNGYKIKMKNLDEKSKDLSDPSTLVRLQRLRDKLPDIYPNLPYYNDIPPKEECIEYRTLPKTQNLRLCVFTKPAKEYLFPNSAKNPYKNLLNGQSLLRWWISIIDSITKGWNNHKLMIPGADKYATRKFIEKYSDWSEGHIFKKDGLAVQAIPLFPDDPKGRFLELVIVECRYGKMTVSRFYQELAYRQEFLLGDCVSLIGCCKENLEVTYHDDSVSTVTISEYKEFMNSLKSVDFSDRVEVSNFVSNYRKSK

SMILES | AC50 [µM]
N#CC1=C(S)N(c2ccccc2)C(c2cccs2)NC1=O (stereo unspecified) | 11.3
O=C(Nc1ccccc1Cl)/C(Cl)=C(\Cl)S(=O)c1ccccc1 (stereo unspecified) | 8.62
O=[N+]([O-])c1ccc(Sc2cccc[n+]2[O-])c2nonc12 | 11.6
O=c1c2cc(F)ccc2sn1-c1ccccc1 | 1.81
O=C(c1nnsc1S(=O)c1ccc(Cl)cc1)N1CCOCC1 (stereo unspecified) | 6.04
O=S(=O)(Nc1cc(Sc2ncn[nH]2)c(O)c2ccccc12)c1ccccc1 | 4.1
COC(=O)c1cccc(N2C(=O)C(Cl)=C(N3CCOCC3)C2=O)c1 | 15.8
CCOC(=O)/C=C/S(=O)(=O)c1ccc(NC(C)=O)cc1 | 5.88
O=c1c2ccccc2[se]n1-c1ccccc1 | 1.55
O=C(NCc1ccccc1)c1nc(S(=O)(=O)Cc2ccccc2)ncc1Cl | 15
Cc1ccc(NC(=O)Cn2sc3nc(C)cc(C)c3c2=O)c(Cl)c1 | 0.831
CC[C@@H](C)[C@H](NC(=O)OC(C)(C)C)c1nnc(S(=O)(=O)Cc2cc(C)ccc2C)o1 | 12.6
CCOC(=O)C(=Cc1cc(=O)c(OC)co1)C(=O)OCC | 10.7
Cc1ccc(S(=O)(=O)CCC(=O)c2cccc([N+](=O)[O-])c2)cc1 | 8.29
CCCCCCCCCCCCCCCC[N+](C)(C)CCN(Cc1ccc(OC)cc1)c1ncccn1 | 16.1

Same assay, conditions: Rtt109/Vps75 HAT activity, at 19.5 µM (top of the series)

SMILES | activity change, negative = inhibition
C#CCOCCOCCOCCNc1nc(N2CCN(C(=O)[C@H](CCCN=C(N)N)n3cc(C(N)[C@@H](C)CC)nn3)CC2)nc(N2CCN(C(=O)[C@H](CCCCN)n3cc([C@@H](N)[C@H](C)CC)nn3)CC2)n1 (stereo partly specified) | inactive
CCOC(=O)C1CCN(c2ccc([N+](=O)[O-])c(C(C)=O)c2)CC1 | inactive
NC(N)=N/N=C/c1ccc(OCc2ccccc2)c(OCc2ccccc2)c1 | inactive
CC(C)C(C(=O)Nc1cccnc1)N1C(=O)c2ccccc2C1=O (stereo unspecified) | inactive
COc1cccc2c1Oc1ncccc1N(C(=O)CCC(=O)NCc1ccc(F)cc1)C2 | inactive
O=C(Nc1ccc(F)cc1F)N1CCCC(c2nc(-c3ccc(F)cc3)no2)C1 (stereo unspecified) | inactive
COc1ccc(N2CCN(C(=O)CSc3nnc(-c4cccnc4)n3-c3ccccc3)CC2)cc1 | inactive
CSc1c(SCc2ccccc2)cnn(-c2ccccc2)c1=O | inactive
COc1ccccc1-n1cnnc1SCC(=O)NC1CCCC1 | inactive
COc1ccccc1NS(=O)(=O)c1ccc(C)c(C(=O)NCC2(N(C)C)CCCCC2)c1 | inactive
COc1ccccc1NC1=C(Cl)C(=O)N(C2CCCCC2)C1=O | inactive
O=C(NCc1ccncc1)C(=O)NCC(c1ccco1)N1CCN(c2ccc(F)cc2)CC1 (stereo unspecified) | inactive
Clc1ccc(COC(Cn2ccnc2)c2ccc(Cl)cc2Cl)c(Cl)c1 (stereo unspecified) | inactive
O=C1/C(=C/c2ccc(F)cc2)SC(=S)N1CC(=O)N1CCCCC1c1cccnc1 (stereo unspecified) | inactive
O=C(O)CSCC(=O)Nc1cc(C(F)(F)F)ccc1Cl | inactive
CC(C)c1nnc(NC(=O)CCC(=O)NCc2cccs2)s1 | inactive
COc1ccccc1CC(=O)N1CCN(S(=O)(=O)c2ccccc2F)CC1 | inactive
CN(C(=O)CCc1nc(-c2ccccc2F)no1)c1ccccc1 | inactive
Cc1ccc(C2=NC(C)(C)N=C2SCC(=O)Nc2ccc(Cl)cc2)cc1 | inactive
O=C(CSC1=NC2(CCCCC2)N=C1c1ccccc1)Nc1ccc2c(c1)OCCO2 | inactive
O=C(NNc1ccccc1)C(=O)NNS(=O)(=O)c1ccc(CCCl)cc1 | inactive
COc1cccc(C(=O)NCc2nnc(SCC(=O)Nc3nccs3)n2-c2cccc(C)c2)c1 | inactive
COc1ccc(-[n+]2c(C)cc(/C=C3\Sc4ccccc4N3C)cc2C)cc1 | inactive
COCCN1Cc2cccc(C(=O)Nc3ccc(-c4nc5ccccc5[nH]4)cc3)c2C1=O | inactive
O=C1COc2ccc(C(=O)c3ccccc3C(=O)NCc3ccco3)cc2N1 | inactive
CCCCn1c(N)c(N(Cc2ccccc2OC)C(=O)c2sccc2C)c(=O)[nH]c1=O | inactive

SMILES | activity change, negative = inhibition
COc1ccc(CC(NC(C)=O)C(=O)NC2CCN(c3nc(C)cc(C)c3C#N)CC2)cc1 (stereo unspecified) | inactive
Cc1nc(CC(C)C)cc(C(=O)N2CCCC(CNS(=O)(=O)c3cccs3)C2)n1 (stereo unspecified) | inactive
C#CCOCCOCCOCCNc1nc(N2CCN(C(=O)[C@H](CCCCN)n3cc([C@@H](N)CC(C)C)nn3)CC2)nc(N2CCN(C(=O)[C@H](CCCCN)n3cc([C@@H](N)CC(C)C)nn3)CC2)n1 | inactive
COc1cccc(-c2ccc(C#N)c(SCC(=O)NCCc3ccc(Cl)cc3)n2)c1 | inactive
CCOC(=O)c1ccc(N2C(=O)c3n[nH]c(C)c3C2c2ccc(OC)cc2)cc1 (stereo unspecified) | inactive
O=C(NCCCN1CCCC1=O)c1ccc(OC(F)(F)F)cc1 | inactive
O=C(COC(=O)Cc1ccccc1[N+](=O)[O-])Nc1nnc(-c2ccccc2)o1 | inactive
CN(C)c1ccc(NC(=O)/C=C/c2ccccc2Cl)cc1 | inactive
COCCNS(=O)(=O)c1ccc2c(c1)C(=NO)c1cc(S(=O)(=O)NCCOC)ccc1-2 | inactive
CCn1c(SCC(=O)Nc2cc(OC)c(OC)c(OC)c2)nnc1-c1cccs1 | inactive
CC(/C=C1\SC(=S)N(C(C(=O)O)c2ccccc2)C1=O)=C\c1ccccc1 (stereo unspecified) | inactive
O=C(NCc1ccc2c(c1)OCO2)c1ccc(CS(=O)Cc2cccc(Cl)c2)o1 (stereo unspecified) | inactive
COc1ccc(C(=O)NNC(=O)c2ccncc2)cc1 | inactive
COc1ccccc1C(=O)CSc1nccn1C | inactive
O=C(O)COc1ccccc1O | inactive
COc1cc(NC(=O)COc2c(C)cc(C)cc2[N+](=O)[O-])c(OC)cc1Cl | inactive
C[C@H]1CC[C@H]2NCCN[C@H]2C1 | inactive
O=C1Nc2cc(C(=O)NCCCN3CCCC3)ccc2S/C1=C\c1ccccc1 | inactive
O=C(CSc1nnc(Cc2cccs2)n1C1CCCCC1)N1CCN(C(=O)c2ccco2)CC1 | inactive
O=C(C1CCOCC1)N1CCCC(N2CCN(c3cccc(C(F)(F)F)c3)CC2)C1 (stereo unspecified) | inactive
CC(=O)N(c1ccc2oc(=O)sc2c1)S(=O)(=O)c1cccc2cccnc12 | inactive
O=C(CNC(=O)c1cccc(Br)c1)N/N=C/c1cccs1 | inactive
CCOC(=O)C1=C(C)NC(C)=C(C(=O)OCC)C1C(=O)OCC(=O)NCCc1ccc(S(N)(=O)=O)cc1 | inactive
Cc1cccc(NC(=O)CCN2C(=O)c3ccccc3C2=O)c1 | inactive
CC1CCC2(CC1)NC(=S)N(c1ccccc1)N2 (stereo unspecified) | inactive
O=C(O)C(Cc1ccccc1)N1C(=O)/C(=C/c2ccccc2)SC1=S (stereo unspecified) | inactive

SMILES | activity change, negative = inhibition
COc1ccc(/C=C2/SC(=O)N(NS(=O)(=O)c3ccccc3)C2=S)cc1OC | inactive
CCc1nnc(NC(=O)CN2C(=O)c3ccccc3C2=O)s1 | inactive
CC(=O)Nc1ccc(OCc2cccc([N+](=O)[O-])c2)cc1 | inactive
CC1CCCCC1N(C)C1CCN(C(=O)CNC(=O)/C=C/c2cccc(Cl)c2)CC1 (stereo unspecified) | inactive
Cc1nn(C)cc1[C@@H]1C[C@H]2CN(Cc3cccc(Cl)c3)C(=O)[C@]23CCCN13 | inactive
COc1ccccc1NC(=O)CSC(N)=O | inactive
CC1CCN(c2ccccc2NC(=O)c2cc([N+](=O)[O-])ccc2N2CCOCC2)CC1 | inactive
O=C(Nc1ccc(Cl)c(S(=O)(=O)N2CCCCC2)c1)C1=COCCO1 | inactive
O=C1CCC(=O)N1c1ccc(-c2nc3ccccc3s2)cc1 | inactive
O=C(/C=C/c1ccc(Cl)cc1)NCc1ccncc1 | inactive
CCN(c1ccc(OC)cc1)S(=O)(=O)c1nnc(NC(=O)COc2ccc(C)cc2)s1 | inactive
CN(CC(=O)Nc1ccc(Cl)cc1)C(=O)c1cccc(S(=O)(=O)NCc2ccccc2)c1 | inactive
Cc1nn(CC(=O)NCc2cccnc2)c(C)c1[N+](=O)[O-] | inactive
CCc1nnc(NC(=O)CSc2nnc(C3CCCCC3)n2-c2cccc(Cl)c2)s1 | inactive
COc1ccc(Br)cc1CN(C)C(C)C(=O)Nc1cccc(C(C)=O)c1 (stereo unspecified) | inactive
O=S(=O)(Nc1ccc(-c2nnc(SCc3ccc(Cl)cc3)o2)cc1)c1ccccc1 | inactive
CC#CCN(CC#CC)S(=O)(=O)c1ccc(-n2cnnn2)c(OC)c1 | inactive
N=c1n(CCN2CCCCC2)c2ccccc2n1CC(O)c1ccc(Cl)c(Cl)c1 (stereo unspecified) | inactive
Cc1ccc(CN(C(=O)c2ccccc2C)C2CCS(=O)(=O)C2)o1 (stereo unspecified) | inactive
N#C/C(=C\c1ccncc1)c1nc2c(s1)CCCC2 | inactive
Clc1nc(NCc2cccnc2)nc(N2CCOCC2)n1 | inactive
COc1ccc(NC(=O)CSc2nnc(-c3ccccc3)n2N)cc1 | inactive
CCN1C=CC(=C2C(=O)c3ccccc3C2=O)C=C1 | inactive
COc1cc(NC(=O)C(Cc2ccccc2)n2cccc2)cc(OC)c1 (stereo unspecified) | inactive
